Assay results taken from article PMC11873758, “Lonidamine, a Novel Modulator for the BvgAS System of Bordetella Species” (Microbiology and Immunology, 2024).

Target: T1, VFT2 domain of BvgS (Bordetella pertussis, UniProt P16575)
T1 construct: His tag from pColdII (no GB1)
Experiment: isothermal titration calorimetry
Assay type: binding
Conditions: 50 mM sodium phosphate, pH 7.4; 300 µM lonidamine into 20 µM VFT2

T1 sequence (P16575 290-541): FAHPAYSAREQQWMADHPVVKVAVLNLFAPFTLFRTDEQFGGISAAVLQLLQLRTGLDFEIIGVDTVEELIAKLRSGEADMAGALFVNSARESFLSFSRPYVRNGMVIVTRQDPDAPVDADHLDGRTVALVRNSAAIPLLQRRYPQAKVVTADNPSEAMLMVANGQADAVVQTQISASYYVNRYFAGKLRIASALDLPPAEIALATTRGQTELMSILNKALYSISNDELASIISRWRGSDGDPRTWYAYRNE

Question: With O=C(O)c1nn(Cc2ccc(Cl)cc2Cl)c2ccccc12 [#5, 1‐(2,4‐dichlorobenzyl)‐1H‐indazole‐3‐carboxylic acid] as the compound, how does the isothermal titration calorimetry read?
Answer: Its isothermal titration calorimetry is “ITC revealed that lonidamine bound to VFT2 but not VFT1”.
